Measured values: ChEMBL document CHEMBL3046605, “Biocontrol of rice blast by the phenaminomethylacetic acid producer of Bacillus methylotrophicus strain BC79” (2013)

How the values were obtained:
Format in all cases: functional
[1] = test system: Pyricularia oryzae; experiment: Antifungal activity against Magnaporthe oryzae in rice seedlings assessed as rice yield at 15% with formulation dose of 400 g/667 m'2 applied using knapsack sprayer measured under field trials (reference value: 5940.6 +/-1.8 kg/hm'2)
[2] = test system: Pyricularia oryzae; experiment: Antifungal activity against Magnaporthe oryzae in rice seedlings assessed as rice blast disease control efficacy treated 24 hr prior to fungal inoculation at 15% measured at 6 days post-inoculation under green house conditions
[3] = test system: Pyricularia oryzae; experiment: Antifungal activity against Magnaporthe oryzae in rice seedlings assessed as rice blast disease control efficacy treated after fungal inoculation at 15% measured under green house conditions
[4] = test system: Pyricularia oryzae; experiment: Antifungal activity against Magnaporthe oryzae in rice seedlings assessed as rice blast disease incidence treated 24 hr prior to fungal inoculation at 15% measured at 6 days post-inoculation under green house conditions (reference value: 92.4 +/-5.6%)
[5] = test system: Pyricularia oryzae; experiment: Antifungal activity against Magnaporthe oryzae in rice seedlings assessed as rice blast disease control efficacy at 15% with formulation dose of 200 g/667 m'2 applied using knapsack sprayer measured under field trials
[6] = test system: Pyricularia oryzae; experiment: Antifungal activity against Magnaporthe oryzae in rice seedlings assessed as rice blast disease incidence at 15% with formulation dose of 400 g/667 m'2 applied using knapsack sprayer measured under field trials (reference value: 43.7 +/-5.4%)
[7] = test system: Pyricularia oryzae; experiment: Antifungal activity against Magnaporthe oryzae in rice seedlings assessed as rice yield at 15% with formulation dose of 200 g/667 m'2 applied using knapsack sprayer measured under field trials (reference value: 5940.6 +/-1.8 kg/hm'2)
[8] = test system: Pyricularia oryzae; experiment: Antifungal activity against Magnaporthe oryzae in rice seedlings assessed as rice blast disease control efficacy at 15% with formulation dose of 400 g/667 m'2 applied using knapsack sprayer measured under field trials
[9] = test system: Pyricularia oryzae; experiment: Antifungal activity against Magnaporthe oryzae in rice seedlings assessed as rice blast disease incidence treated after fungal inoculation at 15% measured under green house conditions (reference value: 92.4 +/-5.6%)
[10] = test system: Pyricularia oryzae; experiment: Antifungal activity against Magnaporthe oryzae in rice seedlings assessed as rice blast disease incidence at 15% with formulation dose of 200 g/667 m'2 applied using knapsack sprayer measured under field trials (reference value: 43.7 +/-5.4%)

## O=C(O)CCNc1ccccc1 [PHENAMINO METHYL ACETIC ACID]
[1]
  Activity: 6275.7 Kg/hr.m2
[2]
  Efficacy: 74.3%
[3]
  Efficacy: 73.6%
[4]
  Activity: 62.5%
[5]
  Efficacy: 68.3%
[6]
  Activity: 18.3%
[7]
  Activity: 6480.5 Kg/hr.m2
[8]
  Efficacy: 75.5%
[9]
  Activity: 60%
[10]
  Activity: 18.3%
